Consider six molecules from patent US12414267B2, “Fluorinated aromatics and methods of using same” (3M INNOVATIVE PROPERTIES COMPANY, priority 2019, dated 2025).

Bounds are passed on as bounds.

The nature of this data set: Log Kow (octanol/water partition coefficient) by HPLC, OECD Test Method 117. It is filed as physicochemical. Conditions: OECD 117. As to the method:
Values of Log Kow (octanol/water partition coefficients) were determined by HPLC using the method described in Organization for Economic Cooperation and Development (OECD) Test Method 117, “Partition Coefficient (n-octanol/water), HPLC Method.”
As to `FC(F)(F)C(=C(Oc1ccccc1)C(F)(F)C(F)(F)F)C(F)(F)F` [Example 5, ((1,1,1,4,4,5,5,5-Octafluoro-2-(trifluoromethyl)pent-2-en-3-yl)oxy)benzene], the “Log Kow” value is recorded as 5.5. Next, `F/C(=C(/C(F)(F)F)C(F)(Oc1c(F)c(F)c(F)c(F)c1F)C(F)(F)C(F)(F)F)C(F)(C(F)(F)F)C(F)(F)F` (stereo not drawn) [Example 3, (E)-1,2,3,4,5-Pentafluoro-6-((1,1,1,2,2,3,5,6,7,7,7-undecafluoro-4,6-bis(trifluoromethyl)hept-4-en-3-yl)oxy)benzene]: >6.4; `FC(F)(F)C(=C(Oc1cccc(C(F)(F)F)c1)C(F)(F)C(F)(F)F)C(F)(F)F` [Example 7, 1-((1,1,1,4,4,5,5,5-Octafluoro-2-(trifluoromethyl)pent-2-en-3-yl)oxy)-3-(trifluoromethyl)benzene]: 6.1. Next, `Fc1c(F)c(F)c(OC(=C(C(F)(F)F)C(F)(F)F)C(F)(F)C(F)(F)F)c(F)c1F` [Example 1, 1,2,3,4,5-Pentafluoro-6-[3,3,3-trifluoro-1-(1,1,2,2,2-pentafluoroethyl)-2-(trifluoromethyl)prop-1-enoxy]benzene]: 6.1; `F/C(Oc1c(F)c(F)c(F)c(F)c1F)=C(/F)C(F)(F)F` [Example 2, (E)-1,2,3,4,5-Pentafluoro-6-((perfluoroprop-1-en-1-yl)oxy)benzene]: 4.7. The value for `F/C(=C(/C(F)(F)F)C(F)(Oc1ccccc1)C(F)(F)C(F)(F)F)C(F)(C(F)(F)F)C(F)(F)F` (stereo not drawn) [Example 4, (E)-((1,1,1,2,2,3,5,6,7,7,7-Undecafluoro-4,6-bis(trifluoromethyl)hept-4-en-3-yl)oxy)benzene+isomers] was >6.4.
